These results are taken from BindingDB's records for doi:10.1016/j.bmcl.2003.11.012 (Novo Nordisk, 2003).

Chain of Growth hormone secretagogue receptor type 1 (Q92847 whole entry): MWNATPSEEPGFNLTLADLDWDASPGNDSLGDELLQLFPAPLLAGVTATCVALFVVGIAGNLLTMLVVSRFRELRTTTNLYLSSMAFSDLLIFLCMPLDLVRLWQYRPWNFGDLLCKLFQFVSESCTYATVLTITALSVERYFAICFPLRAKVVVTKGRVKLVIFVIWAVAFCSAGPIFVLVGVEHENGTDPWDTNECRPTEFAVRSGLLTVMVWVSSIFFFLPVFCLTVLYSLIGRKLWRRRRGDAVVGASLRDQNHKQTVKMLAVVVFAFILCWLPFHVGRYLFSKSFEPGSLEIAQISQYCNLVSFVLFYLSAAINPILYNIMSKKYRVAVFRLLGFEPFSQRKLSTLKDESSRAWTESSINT

The target of the experiment is Growth hormone secretagogue receptor type 1 (Homo sapiens, UniProt Q92847). The experiment is described as follows: ChEBML_72507. The source says:
Inhibition of ghrelin binding to Growth hormone secretagogue receptor expressed in BHK cells
By IC50 is commonly meant the point on the concentration scale where inhibition reaches its midpoint. A low value points to inhibition by little substance. Turning to `CN(C)C(=O)CCn1c(O)c(CCc2ccccc2)n(Cc2ccc(-c3ccccc3-c3nnn[nH]3)cc2)c1=O` [3-{(S)-2,5-Dioxo-4-phenethyl-3-[2'-(2H-tetrazol-5-yl)-biphenyl-4-ylmethyl]-imidazolidin-1-yl}-N,N-dimethyl-propionamide], the IC50 is greater than 100 µM.

On to `NCCCn1c(O)c(CCc2ccccc2)n(Cc2ccc(-c3ccccc3-c3nnn[nH]3)cc2)c1=O` [(S)-3-(3-Amino-propyl)-5-phenethyl-1-[2'-(2H-tetrazol-5-yl)-biphenyl-4-ylmethyl]-imidazolidine-2,4-dione], for which the IC50 is greater than 100 µM.

Regarding `CN(C)CCCn1c(O)c(-c2ccccc2)n(Cc2ccc(-c3ccccc3-c3nnn[nH]3)cc2)c1=S` [(S)-3-(3-Dimethylamino-propyl)-5-phenyl-1-[2'-(2H-tetrazol-5-yl)-biphenyl-4-ylmethyl]-2-thioxo-imidazolidin-4-one], 35 µM corresponded to half-maximal inhibition (IC50).

Compound `CN(C)c1ccc(-n2c(O)c(CCc3ccccc3)n(Cc3ccc(-c4ccccc4-c4nnn[nH]4)cc3)c2=S)cc1` [(S)-3-(4-Dimethylamino-phenyl)-5-phenethyl-1-[2'-(2H-tetrazol-5-yl)-biphenyl-4-ylmethyl]-2-thioxo-imidazolidin-4-one] showed a concentration for half-maximal inhibition (IC50) greater than 100 µM.

For `CN(C)CCCn1c(O)c(Cc2ccccc2)n(Cc2ccc(-c3ccccc3-c3nnn[nH]3)cc2)c1=S` [(S)-5-Benzyl-3-(3-dimethylamino-propyl)-1-[2'-(2H-tetrazol-5-yl)-biphenyl-4-ylmethyl]-2-thioxo-imidazolidin-4-one], the IC50 amounted to 35 µM.
